Results: patent publication US20220395553A1, “CXCR4 ANTAGONIST PEPTIDES” (COHBAR, INC., priority 2019, published 2022)
Square brackets hold non-standard residues; d marks the D form. Peptide text beside a SMILES is read from it.

How the values were obtained:
[1] = biological target: T1, human CXCR4 (Homo sapiens, UniProt P61073); test: IC50 for inhibition of CXCR4 activation, β-Arrestin recruitment (Example 22); assay type: cell-based; parameters: host or cells: C2C12 (mouse myoblast) CXCR4 β-Arrestin PathHunter cell line
T1 sequence (P61073 whole entry): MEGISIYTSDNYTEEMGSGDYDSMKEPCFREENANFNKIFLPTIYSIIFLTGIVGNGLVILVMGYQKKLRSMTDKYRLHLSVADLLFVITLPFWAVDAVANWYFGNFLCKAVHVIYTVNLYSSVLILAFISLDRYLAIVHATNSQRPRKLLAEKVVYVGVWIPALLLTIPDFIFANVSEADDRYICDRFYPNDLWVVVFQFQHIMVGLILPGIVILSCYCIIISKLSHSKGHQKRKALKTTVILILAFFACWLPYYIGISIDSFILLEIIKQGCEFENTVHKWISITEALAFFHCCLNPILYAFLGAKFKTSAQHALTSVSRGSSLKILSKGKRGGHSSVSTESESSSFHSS
Procedure: The assay was run with the DiscoverX protocol. β-Arrestin recruitment assays were performed by Eurofins-DiscoverX (Fremont, Calif.) using C2C12 CXCR4 β-Arrestin cell line (co-expressing ProLink tagged human CXCR4 and Enzyme Acceptor tagged β-Arrestin) and PathHunter detection kit. Peptides were initially prepared as 1 mM stock in H2O and tested in ten (10)-step concentration response curves using 3-fold dilution steps with 1 μM as highest concentration; a concentration range of 1 μM-0.05 nM was tested. C2C12 CXCR4 β-Arrestin cells were seed onto 384-well plates in standard medium. […] At the end of the 90 min incubation period, β-Arrestin recruitment in response to various treatments was quantified using a chemiluminescent complementation reporter assay to measure association of tagged human […] (ProLink tag) and tagged β-Arrestin (Enzyme Acceptor tag).

[2] = biological target: T1, human CXCR4; test: CXCR4/CXCL12 binding, HTRF format, single concentration (Example 23); parameters: host or cells: HEK293 (Tag-lite CXCR4 cells, frozen aliquots, transient expression); conditions: 15 nM CXCR4R fluorescent probe, 3 hours, HEK293 Tag-lite CXCR4 cells
Procedure: Peptides were initially prepared as 1 mM stock in H2O and tested at a final concentration of 400 nM. Following the manufacture's protocol, a frozen aliquot of Tag-lite CXCR4 cells was thawed and immediately seeded onto 384-well plates in TLB. Immediately following the addition of cells, 400 nM peptide (final concentration) in TLB was added to the appropriate well. Then 15 nM (final concentration; EC80) of CXCR4R fluorescent probe was added to each well to initiate the HTRF assay. The plates were covered in aluminum foil and left at room temperature for 3 hours. Following the 3 hour incubation period, the plates were removed from the incubator and fluorescence measured using a Cytation 1 plate reader using a HTRF filter cube ([…]; BioTek; Winooski, Vt.). According manufacture's instruction data reduction was performed by calculating the ratio of 665 nm signal (TRF of 665 nm excitation by 620 emission; amount of CXCR4R fluorescent probe bound to terbium labeled CXCR receptor)/620 nm signal (620 excitation by 330 nm light source; normalization factor for amount of terbium labeled CXCR4 receptor in well)×10,000.

[3] = test system: CXCR4/CXCL12 induced p-MEK; test: CXCR4/CXCL12 induced p-MEK in Jurkat cells (ELISA); assay type: cell-based, human; conditions: 5 nM CXCL12, 5 min
Procedure: The assay was performed following a protocol similar to that described by Peng, et al., Mol Cancer Ther., 14 480-90 (2015), incorporated herein by reference. […] Jurkat cells were resuspended in standard growth media (RPMI+GlutaMax media; Gibco/Thermo Fisher Scientific; Gaithersburg, Md.) containing 10% FBS and 1% penicillin/streptomycin. Assays were performed using fresh or conditioned media (media cultured overnight in presence of Jurkat cells) to resuspend cells at density of 2×10^6 cells/ml and […] of cell suspension was immediately placed in 1.7 ml microfuge tubes. […] Following the 5 min incubation, cells were centrifuged at 1000×g for 4 min at 4° C. The supernatant was removed and the cells were rinsed with 1 ml of HBSS containing calcium and magnesium. The HBSS was removed and the cells were immediately lysed in 150 l of lysis buffer included with Phospho-MEK1 (Ser217/221) Sandwich ELISA kit (Cell Signaling Technology; Danvers, Mass.); lysis buffer was supplemented with 1 m M PMSF (Millipore-Sigma; Saint Louis, Mo.) and Halt protease/phosphatase inhibitor cocktail (Thermo-Fisher; Waltham, Mass.) prior to use. The samples were then placed on ice for 10 min and vortexed periodically. Following the lysis step, the samples were centrifuged at 12,500 rpm for 10 min at 4° C. p-MEK expression in each of the samples was then measure using Phospho-MEK1 (Ser217/221) Sandwich ELISA kit according to manufacturer's instructions. Absorbance was measured using a Cytation 3 plate reader at […] (BioTek; Winooski, Vt.).

Compound	IC50 [1] [nM]	Percent Inhibition of CXCR4/CXCL12 Binding (400 nM peptide) [2] [%]	Percent Inhibition of CXCR4/CXCL12 Induced p-MEK (100 nM Test Article) ([3]; 100 nM test article) [%]	Percent Inhibition of CXCR4/CXCL12 Induced p-MEK (1 μM Test Article) ([3]; 1 μM test article) [%]
CC(C)C[C@H](NC(=O)[C@H](CO)NC(=O)[C@H](CO)NC(=O)[C@H](CCCNC(=N)N)NC(=O)[C@@H](NC(=O)[C@H](CO)NC(=O)[C@H](Cc1c[nH]cn1)NC(=O)[C@H](Cc1c[nH]cn1)NC(=O)[C@H](Cc1ccc(O)cc1)NC(=O)[C@H](CCCNC(=N)N)NC(=O)[C@H](CCC(=O)O)NC(=O)[C@@H](N)CC(C)C)C(C)C)C(=O)O [compound 22] (H-LERYHHSVRSSL-OH; N-terminus and C-terminus assumed)	17	14	–	–
CC(C)C[C@H](NC(=O)[C@H](CO)NC(=O)[C@H](CO)NC(=O)[C@H](CCCNC(=N)N)NC(=O)[C@@H](NC(=O)[C@H](CO)NC(=O)[C@H](Cc1c[nH]cn1)NC(=O)[C@H](Cc1c[nH]cn1)NC(=O)[C@H](Cc1ccc(O)cc1)NC(=O)[C@H](CCCNC(=N)N)NC(=O)[C@H](CCCNC(=N)N)NC(=O)[C@@H](N)CC(C)C)C(C)C)C(=O)O [compound 28] (H-LRRYHHSVRSSL-OH; N-terminus and C-terminus assumed)	4	12	–	–
CC(C)C[C@H](NC(=O)[C@H](CO)NC(=O)[C@H](CO)NC(=O)[C@H](CCCNC(=N)N)NC(=O)[C@@H](NC(=O)[C@H](CO)NC(=O)[C@H](Cc1c[nH]cn1)NC(=O)[C@H](Cc1c[nH]cn1)NC(=O)[C@H](Cc1ccc(O)cc1)NC(=O)[C@H](CCCNC(=N)N)NC(=O)[C@H](CCCNC(=N)N)NC(=O)[C@@H](C)N)C(C)C)C(=O)N[C@@H](CCCNC(=N)N)C(=O)N1CCC[C@H]1C(=O)N[C@@H](Cc1ccc(O)cc1)C(=O)N[C@H](C(=O)N[C@@H](CCCCN)C(=O)O)[C@@H](C)O [compound 33] (H-[dA]RRYHHSVRSSLRPYTK-OH; N-terminus and C-terminus assumed)	7	77	7	42
CC(C)C[C@H](NC(=O)[C@H](CO)NC(=O)[C@H](CO)NC(=O)[C@H](CCCNC(=N)N)NC(=O)[C@@H](NC(=O)[C@H](CO)NC(=O)[C@H](Cc1c[nH]cn1)NC(=O)[C@H](CC(N)=O)NC(=O)[C@H](Cc1ccc(O)cc1)NC(=O)[C@H](CCCNC(=N)N)NC(=O)[C@H](CCCNC(=N)N)NC(=O)[C@@H](N)CC(C)C)C(C)C)C(=O)N[C@@H](CCCNC(=N)N)C(=O)N1CCC[C@H]1C(=O)N[C@@H](Cc1ccc(O)cc1)C(=O)N[C@H](C(=O)N[C@@H](CCCCN)C(=O)O)[C@@H](C)O [compound 41] (H-LRRYNHSVRSSLRPYTK-OH; N-terminus and C-terminus assumed)	4	−2	–	–
CC(C)C[C@H](NC(=O)[C@H](CO)NC(=O)[C@H](CO)NC(=O)[C@H](CCCNC(=N)N)NC(=O)[C@@H](NC(=O)[C@H](CO)NC(=O)[C@H](CC(N)=O)NC(=O)[C@H](Cc1c[nH]cn1)NC(=O)[C@H](Cc1ccc(O)cc1)NC(=O)[C@H](CCCNC(=N)N)NC(=O)[C@H](CCC(=O)O)NC(=O)[C@@H](N)CC(C)C)C(C)C)C(=O)N[C@@H](CCCNC(=N)N)C(=O)N1CCC[C@H]1C(=O)N[C@@H](Cc1ccc(O)cc1)C(=O)N[C@H](C(=O)N[C@@H](CCCCN)C(=O)O)[C@@H](C)O [compound 45] (H-LERYHNSVRSSLRPYTK-OH; N-terminus and C-terminus assumed)	121	1	–	–
CC(C)C[C@H](NC(=O)[C@H](CO)NC(=O)[C@H](CO)NC(=O)[C@H](CCCNC(=N)N)NC(=O)[C@@H](NC(=O)[C@H](CO)NC(=O)[C@H](Cc1c[nH]cn1)NC(=O)[C@H](CCC(N)=O)NC(=O)[C@H](Cc1ccc(O)cc1)NC(=O)[C@H](CCCNC(=N)N)NC(=O)[C@H](CCCNC(=N)N)NC(=O)[C@@H](N)CC(C)C)C(C)C)C(=O)N[C@@H](CCCNC(=N)N)C(=O)N1CCC[C@H]1C(=O)N[C@@H](Cc1ccc(O)cc1)C(=O)N[C@H](C(=O)N[C@@H](CCCCN)C(=O)O)[C@@H](C)O [compound 47] (H-LRRYQHSVRSSLRPYTK-OH; N-terminus and C-terminus assumed)	11	5	–	–
CC(C)C[C@H](NC(=O)[C@H](CO)NC(=O)[C@H](CO)NC(=O)[C@H](CCCNC(=N)N)NC(=O)[C@@H](NC(=O)[C@H](CO)NC(=O)[C@H](CCC(N)=O)NC(=O)[C@H](Cc1c[nH]cn1)NC(=O)[C@H](Cc1ccc(O)cc1)NC(=O)[C@H](CCCNC(=N)N)NC(=O)[C@H](CCCNC(=N)N)NC(=O)[C@@H](N)CC(C)C)C(C)C)C(=O)N[C@@H](CCCNC(=N)N)C(=O)N1CCC[C@H]1C(=O)N[C@@H](Cc1ccc(O)cc1)C(=O)N[C@H](C(=O)N[C@@H](CCCCN)C(=O)O)[C@@H](C)O [compound 50] (H-LRRYHQSVRSSLRPYTK-OH; N-terminus and C-terminus assumed)	121	−5	–	–
CC(C)C[C@H](NC(=O)[C@H](CO)NC(=O)[C@H](CO)NC(=O)[C@H](CCCNC(=N)N)NC(=O)[C@@H](C)NC(=O)[C@H](CO)NC(=O)[C@H](CCC(N)=O)NC(=O)[C@H](Cc1c[nH]cn1)NC(=O)[C@H](Cc1ccc(O)cc1)NC(=O)[C@H](CCCNC(=N)N)NC(=O)[C@H](CCC(=O)O)NC(=O)[C@@H](N)CC(C)C)C(=O)N[C@@H](CCCNC(=N)N)C(=O)N1CCC[C@H]1C(=O)N[C@@H](Cc1ccc(O)cc1)C(=O)N[C@H](C(=O)N[C@@H](CCCCN)C(=O)O)[C@@H](C)O [compound 52] (H-LERYHQS[dA]RSSLRPYTK-OH; N-terminus and C-terminus assumed)	121	−2	–	–
CC(C)C[C@H](NC(=O)[C@H](CO)NC(=O)[C@H](CO)NC(=O)[C@H](CCCNC(=N)N)NC(=O)[C@@H](NC(=O)[C@H](CO)NC(=O)[C@H](Cc1c[nH]cn1)NC(=O)[C@H](Cc1c[nH]cn1)NC(=O)[C@H](Cc1ccc(O)cc1)NC(=O)[C@H](CCCNC(=N)N)NC(=O)[C@H](CCCNC(=N)N)NC(=O)[C@@H](N)CC(C)C)C(C)C)C(=O)N[C@@H](CCC(=O)O)C(=O)N1CCC[C@H]1C(=O)N[C@@H](Cc1ccc(O)cc1)C(=O)N[C@H](C(=O)N[C@@H](CCCCN)C(=O)O)[C@@H](C)O [compound 63] (H-LRRYHHSVRSSLEPYTK-OH; N-terminus and C-terminus assumed)	14	9	–	–
CC(C)C[C@H](NC(=O)[C@H](CO)NC(=O)[C@H](CO)NC(=O)[C@H](CCC(=O)O)NC(=O)[C@@H](C)NC(=O)[C@H](CO)NC(=O)[C@H](Cc1c[nH]cn1)NC(=O)[C@H](Cc1c[nH]cn1)NC(=O)[C@H](Cc1ccc(O)cc1)NC(=O)[C@H](CCCNC(=N)N)NC(=O)[C@H](CCCNC(=N)N)NC(=O)[C@@H](N)CC(C)C)C(=O)N[C@@H](CCCNC(=N)N)C(=O)N1CCC[C@H]1C(=O)N[C@@H](Cc1ccc(O)cc1)C(=O)N[C@H](C(=O)N[C@@H](CCCCN)C(=O)O)[C@@H](C)O [compound 64] (H-LRRYHHS[dA]ESSLRPYTK-OH; N-terminus and C-terminus assumed)	14	−6	–	–
